Laboratory results reported in patent US8039430B2 (University of Wollongong, priority 2005, dated 2011).
≈ marks a conversion by molar mass, not a printed value. Structures can show the parent of a compound that is named as a salt. Where two headings read alike, the source gives them in different places.

Key:
S. aureus = settings: when penicillin was introduced in mid-1940s; cited from earlier work
[1] = test system: Staphylococcus aureus strain ATCC 6538P; test: Antibacterial screening (MIC) of compounds of Example 2, S. aureus, Mueller-Hinton broth; format: cell-based; settings: for MIC: Staphylococcus aureus, ATCC6538P
Description: Antibacterial Screening Methodology for Compounds of Example 2
(§1) • All assays used the Staphylococcus aureus strain ATCC 6538P. • Assays described in Chapter 5 additionally used the vancomycin-resistant enterococci and vancomycin-sensitive enterococci strains Ef243, Ef449, Ef820 and Ef487. Culture Media • Mueller-Hinton Broth Medium (MHB): MHB (Oxoid CM405) was prepared with final concentrations of […] MgCl2 and 2 μg/mL CaCl2. Culture medium was pre-warmed for approximately 2-3 h at 37° C. before use. • Mueller-Hinton Agar Medium (MHA): MMB containing 1.5% Agar (Merck Agar 1.01614). Maintenance of Bacteria • From a thawed cryovial, the bacteria was streaked onto MHA and the plate incubated overnight at 37° C. • From this plate, 10 cryovials were prepared by looping several colonies into 0.5 mL of 20% glycerol solution. The cryovials were immediately stored at −140° C. Preparation of Seed Cultures • A cryovial was removed from −140° C. storage and thawed at room temperature. • An MHA plate was streaked with a loopful of bacterial suspension and incubated overnight at 37° C. to create a parent plate (P1). • A daughter plate (D1) was streaked from the parent plate and incubated overnight at 37° C. […] The second parent plate (P2) was used to generate two additional daughter plates using the procedure outlined above before being discarded. • Cryovials were used twice to prepare parent plates (P1 and P2) before being discarded. […] A vancomycin control set (triplicate) and a compound negative control set (triplicate) were also included on each plate (FIG. 1). • The inoculated culture medium was incubated at 37° C. for 30 min, with shaking at 130 rpm. • Using a multichannel pipette, the contents of the first row were mixed before 50 μL was transferred to the second row. The pipette tips were changed and the process repeated by 50 μL of the mixed broth solutions in the second row being transferred to the third row. This process was repeated until the last row contained either the diluted test compound or a control (vancomycin or compound-negative). […] Antibacterial Testing of Compounds of Example 2 Introduction
(§2) The specific testing procedures and protocols are outlined in the section “Antibacterial Screening Methodology for the Compounds of Example 2”.
The antibacterial activity results are measured by minimum inhibitory concentration (MIC), which is the lowest concentration of compound necessary to prevent bacterial growth.

E.f243 = test: Antibacterial screening (MIC) of compounds of Example 2, E.f243; format: cell-based, Enterococcus faecium
Description: as §1, §2
(§3) Vancomycin was used as the standard/control.

E.f449 = test: Antibacterial screening (MIC) of compounds of Example 2, E.f449; format: cell-based, Enterococcus faecium
Description: as §1, §2, §3

E.f820 = test: Antibacterial screening (MIC) of compounds of Example 2, E.f820; format: cell-based, Enterrococci faecium; settings: for Antibacterial activity μg/mL, E.f820: Example 2 compounds, fully vancomycin-resistant strain E.f820
Description: as §1, §2, §3

E.f987 = test: Antibacterial screening (MIC) of compounds of Example 2, E.f987; format: cell-based, Enterococcus faecium; settings: for Antibacterial activity μg/mL, E.f987: Example 2 compounds, enterococci strain E.f987
HIV integrase enzyme [2] = target: T1, HIV integrase enzyme (Human immunodeficiency virus type 1 group M subtype B, UniProt P04585); test: Cross testing of antibacterial compounds for ability to inhibit the HIV integrase enzyme; format: biochemical; settings: Example 2 compounds; compared with lead 88
T1 construct: against the HIV integrase enzyme
Description: (§4) The results for the screening of the four target molecules 165-168 against the HIV integrase enzyme yielded some encouraging results which supported the proposed mechanism of binding in the active binding trench of the HIV integrase enzyme. The testing procedure for the four target compounds differed from the original screening protocols employed. The original screening measured inhibition against the 3′ processing function of the enzyme at the fixed concentration of 50 μg/mL, whereas the four target molecules were tested in an assay adapted from a literature procedure,^107 which measures inhibition against the 3′ strand transfer function of the enzyme. This allows a result to be obtained as an inhibition constant (IC50) concentration, which is the standard measurement of inhibition within the literature. Along with the four target molecules, 88 was also re-tested in the 3′ strand transfer assay to determine the IC50 for direct comparison with the literature.
After these compounds and the computer modelling studies had become established, all compounds that were sent for screening in the antibacterial assay were then also cross tested for their ability to inhibit the HIV integrase enzyme.

MRSA isolates = settings: 43 MRSA isolates from adults with community respiratory infections; cited from earlier work
HIV integrase enzyme [3] = target: T1, HIV integrase enzyme; test: HIV integrase initial screening (3′ processing function); format: biochemical; settings: Example 2 compounds; Conc. 50 μg/mL; 3′ processing function of the enzyme
Description: Compounds synthesized in Example 2 were additionally included in a random database screening strategy against the HIV integrase enzyme.
The compounds that were chosen to be tested against HIV integrase were 78, 81, 88 and 89 and the results are represented in Table 4.
as §4

[4] = test system: E. faecium (VRE, vanA genes); settings: typical for VRE E. faecium in hospitals; cited from earlier work
[5] = test system: E. faecium isolate (VanD-type); settings: VanD-type E. faecium isolate from the United States, constitutively resistant; cited from earlier work
[6] = test system: strains of MRSA which have intermediate resistance to glycopeptides; settings: cited from earlier work
[7] = test system: Staphylococcus aureus (ATCC 6538P); test: Antibacterial assay (MIC), Staphylococcus aureus ATCC 6538P, Luria Broth, Example 1; format: cell-based; settings: Staphylococcus aureus, ATCC6538P, 24 h, read-out: Sa (minimum inhibitory concentration)
In short: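 Broth microdilution in Luria Broth, 2-fold series from 125 to 0.98 ug/ml in triplicate, with 1/1000-diluted overnight culture; up to 2.5% DMSO. Incubated 24 hrs at 37° C with slow rotation; MIC read as lowest concentration giving a clear well without bacterial pellet.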

[8] = test system: #243 E. faecium van B ST17; test: Antibacterial assay (MIC), VRE strain #243, Enterococossel Broth, Example 1; format: cell-based, Enterococcus faecium; settings: Enterococcus faecium, VRE, 24 h, read-out: 243 (minimum inhibitory concentration)
In short: (§5)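 Broth microdilution in Enterococossel Broth, triplicate twofold dilutions from 125 to 0.98 ug/ml, inoculated with 1/1000-diluted overnight E. faecium van B culture. Incubated 24 h at 37° C with slow rotation. MIC read as lowest concentration without pellet or black medium; first-row DMSO 2.5%.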

[9] = test system: #449 E. faecium van B ST17; test: Antibacterial assay (MIC), VRE strain #449, Enterococossel Broth, Example 1; format: cell-based, Enterococcus faecium; settings: Enterococcus faecium, VRE, 24 h, read-out: 449 (minimum inhibitory concentration)
In short: as §5

[10] = test system: #820 E. faecium van A ST17; test: Antibacterial assay (MIC), VRE strain #820, Enterococossel Broth, Example 1; format: cell-based, Enterococcus faecium; settings: Enterococcus faecium, VRE, 24 h, read-out: 820 (minimum inhibitory concentration)
In short: (§6)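 Broth microdilution MIC vs E. faecium VRE strains grown in Enterococossel broth, inoculum 1/1000 of overnight culture; compounds tested in triplicate at 125–0.98 ug/ml (2-fold), top-well DMSO 2.5%. Plates incubated 24 h at 37 °C; MIC read as clear well, no pellet and no black colouring of medium.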

[11] = test system: #987 E. faecium van B ST39; test: Antibacterial assay (MIC), VRE strain #987, Enterococossel Broth, Example 1; format: cell-based, Enterococcus faecium; settings: Enterococcus faecium, VRE, 24 h, read-out: 987 (minimum inhibitory concentration)
In short: as §6

For penicillin, the “susceptible S. aureus” value (S. aureus) is listed as roughly 94%.

In the case of `CCCOc1ccc2ccccc2c1-c1c(OCC(=O)N[C@H](CCCN)C(=O)Nc2cccc(C(=O)NO)c2)ccc2ccccc12.Cl` [Compound 163], the “Antibacterial activity μg/mL, S.a” value ([1]; Example 2 compounds (linear cationic peptides), S. aureus, vancomycin-susceptible strain) was 15.6 µg/mL, the “Antibacterial activity μg/mL, E.f243” value (E.f243; Example 2 compounds, enterococci strain E.f243) was greater than 125 µg/mL and the “Antibacterial activity μg/mL, E.f449” value (E.f449; Example 2 compounds, enterococci strain E.f449) was greater than 125 µg/mL. For the same compound, the “Antibacterial activity μg/mL, E.f820” value (E.f820) was greater than 125 µg/mL, the “Antibacterial activity μg/mL, E.f987” value (E.f987) was greater than 125 µg/mL and the “ability to inhibit the HIV integrase enzyme (in words)” value (HIV integrase enzyme [2]) was “almost as active as the original lead 88”.

In the case of `CC[C@H]1OC(=O)[C@H](C)[C@@H](O[C@H]2C[C@@](C)(OC)[C@@H](O)[C@H](C)O2)[C@H](C)[C@@H](O[C@@H]2O[C@H](C)C[C@H](N(C)C)[C@H]2O)[C@](C)(O)C[C@@H](C)C(=O)[C@H](C)[C@@H](O)[C@]1(C)O` [erythromycin], the susceptibility rates (MRSA isolates) is given as 12%.

Work on `C=CCOc1ccc(C[C@H](NC(C)=O)C(=O)N[C@@H](CCCCNC(=N)N)C(=O)N[C@@H](CC=C)C(=O)OC)cc1` [Compound 88, Methyl(2S,5S,8S)-2-allyl-9-(4-allyloxyphenyl)-5-(4-[guanidino]butyl)-3,6,9-triaza-4,7,10-trioxoundecanoate hydrochloride] yielded an inhibition at 50 µg/mL (HIV integrase enzyme [3]) of 95%.

For teicoplanin, the “minimum inhibitory concentrations (MICs)” value [4] is given as greater than 16 µg/mL and the MIC [5] is given as 4 µg/mL.

For `Oc1cc(Cl)ccc1Oc1ccc(Cl)cc1Cl` [triclosan], the “minimal bactericidal concns. (MBCs), increased value” ([6]; MRSA with intermediate resistance to glycopeptides, decreased susceptibility to biocides) is listed as 3.12 mg 1-1 and the “minimal bactericidal concns. (MBCs), starting value” ([6]; value from which the MBC increased) is listed as 0.002 mg 1-1.

With `C=CCOc1ccc(C[C@H](NC(C)=O)C(=O)N[C@@H](CCCNC(=N)N)C(=O)N[C@@H](CC=C)C(=O)OC)cc1` [Compound 81, Methyl(2S,5S,8S)-2-allyl-8-(4-allyloxybenzyl)-3,6,9-triaza-5-(3-[guanidino]propyl)-4,7,10-oxoundecanoate hydrochloride] the inhibition at 50 µg/mL (HIV integrase enzyme [3]) was 70%.

In the case of gentamicin, the susceptibility rates (MRSA isolates) is listed as 86%.

Work on `CN[C@H](CC(C)C)C(=O)N[C@H]1C(=O)N[C@@H](CC(N)=O)C(=O)N[C@H]2C(=O)N[C@H]3C(=O)N[C@H](C(=O)N[C@H](C(=O)O)c4cc(O)cc(O)c4-c4cc3ccc4O)[C@H](O)c3ccc(c(Cl)c3)Oc3cc2cc(c3O[C@@H]2O[C@H](CO)[C@@H](O)[C@H](O)[C@H]2O[C@H]2C[C@](C)(N)[C@H](O)[C@H](C)O2)Oc2ccc(cc2Cl)[C@H]1O` [Vancomycin, vancomycin, reference compound] yielded an MIC [7] of 0.99 to 15.6 µg/mL (≈ 0.683 to 10.8 µM), an MIC [8] of less than 0.98 µg/mL and an MIC [9] of 15.7 to 62.5 µg/mL (≈ 10.8 to 43.1 µM). It also gave an MIC [10] greater than 62.6 µg/mL, an MIC [11] of less than 0.98 µg/mL and an MIC ([1]; 18 h, read-out: Antibacterial activity (MIC μg/mL)) of 1.25 to 2.5 µg/mL (≈ 0.863 to 1.73 µM). For the same compound, the MIC ([1]; read-out: Antibacterial activity μg/mL, S.a) was 1.95 µg/mL (≈ 1.35 µM), the MIC (E.f243; Enterococcus faecium, read-out: Antibacterial activity μg/mL, E.f243) was 1.95 µg/mL (≈ 1.35 µM) and the MIC (E.f449; Enterococcus faecium, read-out: Antibacterial activity μg/mL, E.f449) was 62.5 µg/mL (≈ 43.1 µM). For the same compound, the “Antibacterial activity μg/mL, E.f820” value (E.f820) was greater than 125 µg/mL, the MIC (E.f820; read-out: Antibacterial activity μg/mL, E.f820) was greater than 125 µg/mL and the MIC (E.f987; Enterococcus faecium, read-out: Antibacterial activity μg/mL, E.f987) was less than 0.98 µg/mL. For the same compound, the “Antibacterial activity μg/mL, E.f987” value (E.f987) was less than 0.98 µg/mL, the susceptibility rates (MRSA isolates) was 100% and the “minimum inhibitory concentrations (MICs)” value [4] was greater than 128 µg/mL.

For `C=CCOc1ccc(C[C@H](NC(C)=O)C(=O)N[C@@H](CCCCN)C(=O)N[C@@H](CC=C)C(=O)OC)cc1` [Compound 78, hydrochloride], the inhibition at 50 µg/mL (HIV integrase enzyme [3]) was 15%.

Work on `C=CCOc1ccc2ccccc2c1-c1c(OCC(=O)N[C@H](CCCNC(=N)N)C(=O)Nc2cccc(C(=O)NO)c2)ccc2ccccc12.Cl` yielded a melting point of 158 to 160 °C.

In the case of `COC(=O)[C@@H]1CC=CCOc2ccc(cc2)C[C@H](NC(C)=O)C(=O)N[C@@H](CCCCNC(=N)N)C(=O)N1` [Compound 89, (7S,10S,13S,4E/Z)-13-Acetamido-10-(4-[guanidino]butyl)-8,11-diaza-7-methoxycarbonyl-2-oxa-9,12-dioxo-1(1,4)phenylenacyclotetradecaphane-4-ene hydrochloride], the inhibition at 50 µg/mL (HIV integrase enzyme [3]) was 4%.
